Results from PMC8841528, “Structural Basis for Unusual TCR CDR3β Usage Against an Immunodominant HIV-1 Gag Protein Peptide Restricted to an HLA-B*81:01 Molecule” (Frontiers in Immunology, 2022).

Tested on: T18A TCR
Test: Surface plasmon resonance (SPR) binding of T18A TCR to peptide/HLA-B*81:01 complexes
Settings: result in words
Procedure: The SPR assays were performed as described earlier ([40]–[42]). Briefly, the protein was buffer -exchanged into PBS and biotinylated for 1h at room temperature. […] The Kd was determined by the fitting of a single-ligand binding model.

Substance | recognition of TL9 escape variant presented by HLA-B*81:01 by T18A TCR
TPsDLNTML [TL9 escape variant, Ser at position 3, presented by HLA-B*81:01] | could recognize
TPQDLNsML [TL9 escape variant, Ser at position 7, presented by HLA-B*81:01] | could recognize
